From PubChem BioAssay (NCI)
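Results reflect a 48-hour exposure of cells in 96-well plates to compound at five concentrations. GI50 = concentration required for 50% inhibition of growth. At the TGI there is no net growth.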

How the values were obtained:
Assay in all cases: NCI anticancer screen, dose series, 48 h
786-0 renal = system: 786-0 renal
A498 renal = system: A498 renal
A549 NSCLC = system: A549 NSCLC
ACHN renal = system: ACHN renal
BT-549 breast = system: BT-549 breast
CAKI-1 renal = system: CAKI-1 renal
CCRF-CEM leukemia = system: CCRF-CEM leukemia
COLO 205 colon = system: COLO 205 colon
DU-145 prostate = system: DU-145 prostate
EKVX NSCLC = system: EKVX NSCLC
HCC-2998 colon = system: HCC-2998 colon
HCT-116 colon = system: HCT-116 colon
HCT-15 colon = system: HCT-15 colon
HL-60(TB) leukemia = system: HL-60(TB) leukemia
HOP-62 NSCLC = system: HOP-62 NSCLC
HS 578T breast = system: HS 578T breast
HT29 colon = system: HT29 colon
IGROV1 ovarian = system: IGROV1 ovarian
K-562 leukemia = system: K-562 leukemia
KM12 colon = system: KM12 colon
M14 melanoma = system: M14 melanoma
MCF7 breast = system: MCF7 breast
MDA-MB-231 breast = system: MDA-MB-231 breast
MDA-MB-435 = system: MDA-MB-435
MOLT-4 leukemia = system: MOLT-4 leukemia
NCI-H226 lung = system: NCI-H226 lung
NCI-H23 lung = system: NCI-H23 lung
NCI-H460 lung = system: NCI-H460 lung
NCI-H522 lung = system: NCI-H522 lung
NCI/ADR-RES ovarian = system: NCI/ADR-RES ovarian
OVCAR-5 ovarian = system: OVCAR-5 ovarian
OVCAR-8 ovarian = system: OVCAR-8 ovarian
PC-3 prostate = system: PC-3 prostate
RPMI-8226 leukemia = system: RPMI-8226 leukemia
RXF 393 renal = system: RXF 393 renal
SF-268 CNS = system: SF-268 CNS
SF-295 CNS = system: SF-295 CNS
SF-539 CNS = system: SF-539 CNS
SK-MEL-2 melanoma = system: SK-MEL-2 melanoma
SK-MEL-5 melanoma = system: SK-MEL-5 melanoma
SK-OV-3 ovarian = system: SK-OV-3 ovarian
SN12C renal = system: SN12C renal
SNB-19 CNS = system: SNB-19 CNS
SNB-75 CNS = system: SNB-75 CNS
SR leukemia = system: SR leukemia
SW-620 colon = system: SW-620 colon
T-47D breast = system: T-47D breast
TK-10 renal = system: TK-10 renal
U251 CNS = system: U251 CNS
UACC-257 melanoma = system: UACC-257 melanoma
UACC-62 melanoma = system: UACC-62 melanoma
UO-31 renal = system: UO-31 renal

N#Cc1c(NC(=O)c2ccccc2C(F)(F)F)sc2c1CCC(=O)C2
GI50 (786-0 renal): 3250 nM | TGI (786-0 renal): > 100000 nM | GI50 (A498 renal): 10500 nM | TGI (A498 renal): 25000 nM | GI50 (A549 NSCLC): 3670 nM | TGI (A549 NSCLC): 29200 nM | GI50 (ACHN renal): 433 nM | TGI (ACHN renal): 1480 nM | GI50 (BT-549 breast): 1090 nM | TGI (BT-549 breast): 8620 nM | GI50 (CAKI-1 renal): 785 nM | TGI (CAKI-1 renal): 2560 nM | GI50 (CCRF-CEM leukemia): 325 nM | TGI (CCRF-CEM leukemia): 14900 nM | GI50 (COLO 205 colon): 1870 nM | TGI (COLO 205 colon): 3740 nM | GI50 (DU-145 prostate): 4670 nM | TGI (DU-145 prostate): > 100000 nM | GI50 (EKVX NSCLC): 2680 nM | TGI (EKVX NSCLC): 11400 nM | GI50 (HCC-2998 colon): 2910 nM | TGI (HCC-2998 colon): 11500 nM | GI50 (HCT-116 colon): 363 nM | TGI (HCT-116 colon): 4890 nM | GI50 (HCT-15 colon): 405 nM | TGI (HCT-15 colon): 1850 nM | GI50 (HL-60(TB) leukemia): 405 nM | TGI (HL-60(TB) leukemia): 4020 nM | GI50 (HOP-62 NSCLC): 3120 nM | TGI (HOP-62 NSCLC): > 100000 nM | GI50 (HS 578T breast): 1950 nM | TGI (HS 578T breast): 8360 nM | GI50 (HT29 colon): 771 nM | TGI (HT29 colon): 9170 nM | GI50 (IGROV1 ovarian): 2370 nM | TGI (IGROV1 ovarian): 13100 nM | GI50 (K-562 leukemia): 378 nM | TGI (K-562 leukemia): 11300 nM | GI50 (KM12 colon): 3440 nM | TGI (KM12 colon): 13900 nM | GI50 (M14 melanoma): 2090 nM | TGI (M14 melanoma): 9330 nM | GI50 (MCF7 breast): 1390 nM | TGI (MCF7 breast): 10300 nM | GI50 (MDA-MB-231 breast): 2080 nM | TGI (MDA-MB-231 breast): 5430 nM | GI50 (MDA-MB-435): 1970 nM | TGI (MDA-MB-435): 5860 nM | GI50 (MOLT-4 leukemia): 1610 nM | TGI (MOLT-4 leukemia): 16700 nM | GI50 (NCI-H226 lung): 2090 nM | TGI (NCI-H226 lung): 5940 nM | GI50 (NCI-H23 lung): 1040 nM | TGI (NCI-H23 lung): 9280 nM | GI50 (NCI-H460 lung): 3350 nM | TGI (NCI-H460 lung): 19000 nM | GI50 (NCI-H522 lung): 360 nM | TGI (NCI-H522 lung): 2580 nM | GI50 (NCI/ADR-RES ovarian): 1310 nM | TGI (NCI/ADR-RES ovarian): 5180 nM | GI50 (OVCAR-5 ovarian): 1480 nM | TGI (OVCAR-5 ovarian): 3810 nM | GI50 (OVCAR-8 ovarian): 1680 nM | TGI (OVCAR-8 ovarian): > 100000 nM | GI50 (PC-3 prostate): 384 nM | TGI (PC-3 prostate): 15600 nM | GI50 (RPMI-8226 leukemia): 272 nM | TGI (RPMI-8226 leukemia): 954 nM | GI50 (RXF 393 renal): 1050 nM | TGI (RXF 393 renal): 2800 nM | GI50 (SF-268 CNS): 3310 nM | TGI (SF-268 CNS): 34000 nM | GI50 (SF-295 CNS): 2580 nM | TGI (SF-295 CNS): 7050 nM | GI50 (SF-539 CNS): 480 nM | TGI (SF-539 CNS): 1910 nM | GI50 (SK-MEL-2 melanoma): 2650 nM | TGI (SK-MEL-2 melanoma): 7020 nM | GI50 (SK-MEL-5 melanoma): 1650 nM | TGI (SK-MEL-5 melanoma): 3470 nM | GI50 (SK-OV-3 ovarian): 4870 nM | TGI (SK-OV-3 ovarian): 50400 nM | GI50 (SN12C renal): 2500 nM | TGI (SN12C renal): 15900 nM | GI50 (SNB-19 CNS): 3370 nM | TGI (SNB-19 CNS): > 100000 nM | GI50 (SNB-75 CNS): 1630 nM | TGI (SNB-75 CNS): 6100 nM | GI50 (SR leukemia): 359 nM | TGI (SR leukemia): 5820 nM | GI50 (SW-620 colon): 427 nM | TGI (SW-620 colon): 2520 nM | GI50 (T-47D breast): 374 nM | TGI (T-47D breast): 3240 nM | GI50 (TK-10 renal): 1640 nM | TGI (TK-10 renal): 9830 nM | GI50 (U251 CNS): 1240 nM | TGI (U251 CNS): > 100000 nM | GI50 (UACC-257 melanoma): 2210 nM | TGI (UACC-257 melanoma): 6480 nM | GI50 (UACC-62 melanoma): 1180 nM | TGI (UACC-62 melanoma): 2960 nM | GI50 (UO-31 renal): 490 nM | TGI (UO-31 renal): 1820 nM
